In patent publication EP2108650A1, “Novel aureothin derivatives” (Leibniz-Institut für Naturstoff-Forschung und …, priority 2008, dated 2009):
Where two headings read alike, the source gives them in different places.

Columns and labels:
[1] = tested on: human K-562 leukemia cells; experiment: Antiproliferative assay on K-562 cells (CellTiter-Blue viability readout); assay type: cell-based; settings: for IC50: Homo sapiens; for increase of antiproliferative activity compared to aureothin: ratio of IC50 versus aureothin
Procedure: Cells were grown in the appropiate cell culture medium supplemented with 10 mL L^-1 ultraglutamine 1 (Cambrex 17-605E/U1), 500 µL L^-1 gentamicin sulfate (CAMBREX 17-518Z), and 10% heat inactivated fetal bovine serum (PAA A15-144) at 37°C in high density polyethylene flasks (NUNC 156340).
The test substances are dissolved in DMSO before being diluted in DMEM. […] were harvested at the logarithmic growth phase after soft trypsinization, using 0.25% trypsin in PBS containing 0.02% EDTA (Biochrom KG L2163). For each experiment approximately 10,000 cells were seeded with 0.1 mL culture medium per well of the 96-well microplates (NUNC 167008).
The cells were incubated with dilutions of the test substances for 72 hours at 37°C in a humidified atmosphere and 5% CO2.
For estimating the influence of chemical compounds on cell proliferation of K-562 we determinate the numbers of viable cells present in multiwell plates via CellTiter-Blue® assay. It uses the indicator dye resazurin to measure the metabolic capacity of cells as indicator of cell viability. Viable cells of untreated control retain the ability to reduce resazurin into resorufin, which is highly fluorescent. […] Under our experimental conditions, the signal from the CellTiter-Blue® reagent is proportional to the number of viable cells.
The GI50 and CC50 values were defined as being where the concentration-response curve intersected the 50% line, compared to untreated control. These comparisons of the different values were performed with software Magellan (TECAN).
A repeat determination has been conducted in all cases.

[2] = tested on: fungal strains like Candida albicans, Sporobolomyces salmonicolor, Penicillium notatum, Glomerella or several Aspergillus spp.; experiment: Antimicrobial / antifungal activity testing; assay type: cell-based; settings: qualitative; compared with the other antimicrobial activities or with aureothin
[3] = K562, DOA derivatives, K-562 cells, 72 h incubation (assay inferred; table has no title), read-out: IC50

Structure (SMILES) | IC50 ([1]; K562, read-out: IC50 antiproliferative activity against K-562 cells) | increase of antiproliferative activity compared to aureothin ([1]; K-562 cells) | IC50 ([1]; K562, 72 h) | IC50 [1, 3] | effect against fungal strains [2]
COc1oc(CC/C(C)=C/C(C)=C/c2ccc([N+](=O)[O-])cc2)c(C)c(=O)c1C [Deoxyaureothin, deoxyaureothin, reference compound] | 5000 nM | 5 fold | – | – | –
COc1oc(CC/C(C)=C/C(C)=C/c2ccc(Br)cc2)c(C)c(=O)c1C [R = Ar-Br, p-bromo-DOA] | – | – | 1000 nM | 0.5 µg/mL | –
COc1oc(CC/C(C)=C/C(C)=C/c2ccc(C#N)cc2)c(C)c(=O)c1C [R = Ar-CN, deoxyaureonitrile] | – | up to 25 fold | 1000 nM | 0.5 µg/mL | activities comparable to aureothin
COc1oc(CC/C(C)=C/C(C)=C/c2ccc(Cl)cc2)c(C)c(=O)c1C [R = Ar-Cl, p-chloro-DOA] | – | – | 2000 nM | 0.8 µg/mL | –
COc1oc(CC/C(C)=C/C(C)=C/c2ccc(F)cc2)c(C)c(=O)c1C [R = Ar-F, p-fluoro-DOA] | – | – | 1000 nM | 0.5 µg/mL | –
COc1oc(CC/C(C)=C/C(C)=C/c2ccc(I)cc2)c(C)c(=O)c1C [R = Ar-I, p-iodo-DOA] | – | – | 1000 nM | 0.5 µg/mL | –
COc1oc(CC/C(C)=C/C(C)=C/c2ccc3ccccc3c2)c(C)c(=O)c1C [R = Ar-Ph, 2-naphthoate-DOA] | – | – | 21000 nM | 8 µg/mL | –
